Test results as given in patent US12655041B2, “Method for operating reverse osmosis membrane device, a slime control method, and a water treatment device” (priority 2021, dated 2026).

System: slime in a reverse osmosis membrane
Test: Test Example 1: evaluation of slime inhibition in reverse osmosis membrane (membrane fouling simulator, days to 100 kPa differential pressure)
Parameters: species or system microorganism
Details: days for differential pressure to reach 100 kPa; substrates ethanol 50 mg/L as C, ammonium chloride 10 mg/L as N, sodium dihydrogen phosphate 0.5 mg/L as P; 25° C.; no chemical added: 8
Protocol: (§1) A substrate was added to raw water, and a biofouling effect of a microorganism was accelerated. Specifically, as substrates, ethanol, ammonium chloride and sodium dihydrogen phosphate were added to raw water so that the concentrations reached 50 mg/L as C, 10 mg/L as N and 0.5 mg/L as P, respectively, thereby producing water to be treated. The pH of the raw water (water to be treated) was 6 to 8, TOC was 1 mg/L, ORP was 300 mV, and the water temperature was 25° C.
This water to be treated was pressurized to 1.5 MPa with a pump and supplied as supply water (the water amount was 100 mL/min, the water pressure was 0.2 MPa, and the water temperature was 25° C.) to a concentrate compartment of an RO membrane device, and an RO membrane treatment was performed. […]
(§2) Upon the evaluation of slime inhibition in a reverse osmosis membrane, the number of days taken for the differential pressure to increase up to 100 kPa under conditions shown in Table 1 was measured using a membrane fouling simulator that is in Non-Patent Literature 1 (J. S. Vrouwenvelder et. al.), and the day where this differential pressure was reached was regarded as a day when biofouling occurred, that is, an occlusion day. It is evaluated that, as the number of days taken until this occlusion increases, slime can be inhibited more favorable.

SMILES	Number of days until occlusion [days]
Cn1sc(Cl)cc1=O [1-3, 5-chloro-2-methyl-4-isothiazolin-3-one]	15
O=S(=O)([O-])NCl.[Na+] [Comparative Example 1-2, Sodium monochlorosulfamate]	12

System: slime in a reverse osmosis membrane
Test: Test Example 4: number of days for the differential pressure to reach 100 kPa
Parameters: species or system microorganism
Details: days for differential pressure to reach 100 kPa; substrates 30 mg/L as C, 10 mg/L as N, 0.5 mg/L as P; 20° C.; no addition: 10
Protocol: as §1
This water to be treated was pressurized to 1.5 MPa with a pump and supplied as supply water (the water amount was 100 mL/min, the water pressure was […], and the water temperature was 25° C.) to a concentrate compartment of an RO membrane device, and an RO membrane treatment was performed. As the RO membrane device, a device in which one vessel was filled with a 4-inch spiral RO membrane element of an aromatic polyamide-based RO membrane (manufactured by Nitto Denko Corporation, ES20) was used. The flow rate of the supply water was 3 to 10 m^3/h per 8-inch spiral module. A change in the differential pressure means a change in the difference of the pressure at each water-passing time after the beginning of measurement from 0 kPa that is a set pressure at the time of the beginning of the measurement.
as §2
A test was performed under the same conditions as in <Test Example 1> except that water to be treated prepared by adding, as substrates, ethanol, ammonium chloride and sodium dihydrogen phosphate to raw water so that the concentrations reached 30 mg/L as C, 10 mg/L as N and 0.5 mg/L as P, respectively, was used, the water temperature of the water to be treated was set and adjusted to 20° C., and the addition periods and addition concentrations of the slime inhibitors were set as shown in Table 2.
The oxidation-based slime inhibitor is continuously added “for 30 minutes”, and the water to be treated containing the chemical is continuously passed through the RO membrane device downstream thereof “for 30 minutes”.
The organic-based slime inhibitor is continuously added “for 30 minutes”, and the water to be treated containing the chemical is continuously passed through the RO membrane device downstream thereof “for 30 minutes”. […]

SMILES	Number of days until occlusion [days]
O=S(=O)([O-])NCl.[Na+] [4-2, Sodium monochlorosulfamate]	12
O=S(=O)([O-])NCl.[Na+] [4-3, Sodium monochlorosulfamate]	30
Cn1sc(Cl)cc1=O [4-4, 5-chloro-2-methyl-4-isothiazolin-3-one]	32
Cn1sc(Cl)cc1=O [4-5, 5-chloro-2-methyl-4-isothiazolin-3-one]	18
